Measured values as given in paper PMC6792352, “Limited Chemical Structural Diversity Found to Modulate Thyroid Hormone Receptor in the Tox21 Chemical Library” (Environmental Health Perspectives, 2019).
Counter-ions that a name gives are not always drawn.

experiment: in vitro; conditions: rat, gh3-tre-luc cells, AC50 (uM) modified / 1000

Compound | CC50 at 24 h [µM]
CC(C)C(=O)c1c(C(C)C)nn2ccccc12 [Ibudilast] | > 50
C[C@@H](N)C(=O)O [D-Alanine] | > 50
CC(C)(C)NCC(O)c1ccc(O)c(CO)n1 (stereo not drawn) [Pirbuterol hydrochloride] | > 50
CCOC(=O)c1ccc(NC(=O)CN2CCCCC2)cc1 [Sulcaine] | > 50
COc1cc(NS(=O)(=O)c2ccc(N)cc2)ncn1 [Sulfamonomethoxine] | > 20
O=c1[nH]ncc2ccccc12 [1(2H)-Phthalazinone] | > 90
C1CCC2(CCCCO2)OC1 [1,7-Dioxaspiro[5.5]undecane] | > 90
CCC(C)n1ncn(-c2ccc(N3CCN(c4ccc(OC[C@H]5CO[C@](Cn6cncn6)(c6ccc(Cl)cc6Cl)O5)cc4)CC3)cc2)c1=O (mixture of isomers) [Itraconazole] | 3.2
O=C(O)CC/C=C\CC[C@@H]1[C@@H](N2CCCCC2)[C@@H](O)C[C@@H]1OCc1ccc(-c2ccccc2)cc1 [Vapiprost hydrochloride] | > 50
O=C1OC(O)C(C(Cl)Cl)=C1Cl (stereo not drawn) [3-Chloro-4-(dichloromethyl)-5-hydroxy-2(5H)-furanone] | 35
Clc1ccc(Cn2c(CN3CCCC3)nc3ccccc32)cc1 [Clemizole hydrochloride] | > 20
NNc1nc(-c2ccc(N)cc2)cs1 [2-Hydrazino-4-(4-aminophenyl) thiazole] | 74.8
CCCCNS(=O)(=O)c1ccc(C)cc1 [N-Butyl-p-toluenesulfonamide] | > 90
ClCCCl [1,2-Dichloroethane] | > 90
c1ccccc1 [Benzene] | > 90
CN(C)c1ccncc1 [N,N-dimethylpyridin-4-amine] | > 90
CSc1ccc2c(c1)N(CCC1CCCCN1C)c1ccccc1S2 (stereo not drawn) [Thioridazine hydrochloride] | 7.04
CN1C(=O)CCS(=O)(=O)C1c1ccc(Cl)cc1 (stereo not drawn) [Chlormezanone] | > 90
C#C[C@]1(O)CC[C@H]2[C@@H]3CCC4=CC(=O)CC[C@@H]4[C@H]3CC[C@@]21CC [Levonorgestrel] | > 90
CCCCCCOC(=O)CCCCCCCC(=O)OCCCCCC [Dihexyl nonanedioate] | > 90

Compound | CC50 at 24 h [µM]
COc1ccc(-n2nc(C(F)F)cc2-c2ccc([S+](C)[O-])cc2)cc1 (stereo not drawn) [Difpas-pyrazole] | > 90
C=CCc1ccc(OC)cc1 [Estragole] | > 90
O=[N+]([O-])c1cc(C(F)(F)F)c(Cl)c([N+](=O)[O-])c1Nc1ncc(C(F)(F)F)cc1Cl [Fluazinam] | 4.25
Nc1c2c(nc3ccccc13)CCCC2O (stereo not drawn) [Hydroxytacrine maleate] | > 50
Nc1ccc(F)cc1F [2,4-Difluoroaniline] | > 90
CC1=CCC(C(C)C)=CC1 [gamma-Terpinene] | > 90
N[C@@H](CCC(=O)N[C@@H](CS)C(=O)NCC(=O)O)C(=O)O [Glutathione] | > 50
CC(C)Cc1ccc([C@@H](C)C(=O)NS(C)(=O)=O)cc1 [Reparixin] | > 50
C/C=C(\C)C(=O)OCc1ccccc1 [Benzyl tiglate] | > 90
COC1=CC(=O)O[C@@H](CCc2ccccc2)C1 [Dihydrokavain] | > 100
CC[C@@H](C)[C@@H](N)C(=O)O [D-Isoleucine] | > 50
CCCCC/C=C\C=C\C(=O)OCC [Ethyl (2E,4Z)-deca-2,4-dienoate] | 29.3
O=C(O)Cc1csc(-c2ccc(Cl)cc2)n1 [Fenclozic acid] | > 50
CC[N+](C)(C)c1cccc(O)c1 [Edrophonium chloride] | > 20
O=C1NCN(c2ccccc2)C12CCN(CC1COc3ccccc3O1)CC2 (stereo not drawn) [Spiroxatrine] | 36.3
CC(=O)OCC(=O)[C@@]12N=C(C)O[C@@H]1C[C@H]1[C@@H]3CCC4=CC(=O)C=C[C@]4(C)[C@H]3[C@@H](O)C[C@@]12C [Deflazacort] | > 90
Oc1nc(Cl)c(Cl)cc1Cl [3,5,6-Trichloro-2-pyridinol] | > 90
O=C1CN=C(c2ccccc2)c2cc(Cl)ccc2N1 [Desmethyldiazepam] | > 50
CO/N=C(\C(=O)N[C@@H]1C(=O)N2C(C(=O)O)=C(C[N+]3(C)CCCC3)CS[C@H]12)c1csc(N)n1 [Cefepime chloride hydrochloride hydrate] | > 50
Cc1c(OCC(F)(F)F)ccnc1C[S+]([O-])c1nc2ccccc2[nH]1 (stereo not drawn) [Lansoprazole] | > 90

Compound | CC50 at 24 h [µM]
O=C(O)c1ccc[n+]([O-])c1 [Nicotinic acid 1-oxide] | > 50
C[C@]12C=CC(=O)C=C1CC[C@@H]1[C@@H]2[C@@H](O)C[C@@]2(C)[C@H]1CC[C@]2(O)C(=O)COC(=O)CCC(=O)O [Prednisolone 21-hemisuccinate] | > 50
c1ccc2c(c1)OCC(CN1CCCCC1)O2 (stereo not drawn) [Piperoxan] | > 50
CCCN[C@H]1CCc2nc(N)sc2C1 [Pramipexole dihydrochloride monohydrate] | > 100
NCc1ccccc1 [Benzylamine] | > 90
Cc1cn([C@H]2C[C@H](F)[C@@H](CO)O2)c(=O)[nH]c1=O [Alovudine] | > 50
CCC(C)CCCC(C)(C)O (stereo not drawn) [2,6-Dimethyloctan-2-ol] | > 90
CCCCCCCCCCCCCCCC(=O)OC[C@@H](COP(=O)([O-])OCC[N+](C)(C)C)OC(=O)CCCCCCCCCCCCCCC | > 50
O=C(NCNC(=O)NC1C(=O)NC(=O)N1CO)NC1C(=O)NC(=O)N1CO (stereo not drawn) [Imidazolidinyl urea] | > 90
O=[N+]([O-])c1ccccc1Nc1ccccc1 [2-Nitrodiphenylamine] | > 90
CC1(S(=O)(=O)O)CC(=O)c2ccccc2C1=O (stereo not drawn) [Menadione sodium bisulfite] | 12.2
S=C=NCc1ccccc1 [Benzyl isothiocyanate] | > 90
O=C1OC(=O)c2cccc3cccc1c23 [1H,3H-Naphtho(1,8-cd)pyran-1,3-dione] | > 90
Cc1ccc2ccc3cccc4ccc1c2c34 [1-Methylpyrene] | > 90
c1ccc(P(c2ccccc2)c2ccccc2)cc1 [Triphenylphosphine] | > 90
NC(=O)[C@H]1O[C@@H](O)[C@H](O)[C@@H](O)[C@@H]1O [Glucuronamide] | > 50
CCC(C)OC(=O)N1CCCCC1CCO (stereo not drawn) [Icaridin] | > 90
O=Nc1ccc(NO)cc1 [p-Benzoquinone dioxime] | > 100

same assay, conditions: rat, gh3-tre-luc cells, AC50 (uM) modified / 1000, Tox21_110001=Tox21_112610; viability, 1 nM T3 present, 24 h

Compound | CC50 at 24 h [µM]
CCOc1ccc2c3c1O[C@H]1[C@@H](O)C=C[C@H]4[C@@H](C2)N(C)CC[C@@]341 [Ethylmorphine] | > 50

same assay, conditions: rat, gh3-tre-luc cells, AC50 (uM) modified / 1000, Tox21_110001=Tox21_200571; viability, 1 nM T3 present, 24 h

Compound | CC50 at 24 h [µM]
BrC(Br)C(Br)(Br)Br [Pentabromoethane] | 24.2

same assay, conditions: rat, gh3-tre-luc cells, AC50 (uM) modified / 1000, Tox21_110001=Tox21_201525; viability, 1 nM T3 present, 24 h

Compound | CC50 at 24 h [µM]
CSSC [Methyl disulfide] | > 90

same assay, conditions: rat, gh3-tre-luc cells, AC50 (uM) modified / 1000, Tox21_110001=Tox21_202439; viability, 1 nM T3 present, 24 h

Compound | CC50 at 24 h [µM]
C=CCc1ccc2c(c1)OCO2 [Safrole] | > 90

same assay, conditions: rat, gh3-tre-luc cells, AC50 (uM) modified / 1000, Tox21_110001=Tox21_202896; viability, 1 nM T3 present, 24 h

Compound | CC50 at 24 h [µM]
O=C/C=C/c1ccco1 [(E)-3-(2-Furyl)acrolein] | > 90

same assay, conditions: rat, gh3-tre-luc cells, AC50 (uM) modified / 1000, Tox21_110001=Tox21_300621; viability, 1 nM T3 present, 24 h

Compound | CC50 at 24 h [µM]
ClC1=C(Cl)[C@]2(Cl)[C@@H]3[C@@H](Cl)[C@H]4O[C@H]4[C@@H]3[C@@]1(Cl)C2(Cl)Cl [Heptachlor epoxide] | 48.8

same assay, conditions: rat, gh3-tre-luc cells, AC50 (uM) modified / 1000, Tox21_110001=Tox21_302159; viability, 1 nM T3 present, 24 h

Compound | CC50 at 24 h [µM]
O=C(Cc1ccccc1)c1ccccc1 [1,2-Diphenylethanone] | > 90

same assay, conditions: rat, gh3-tre-luc cells, AC50 (uM) modified / 1000, Tox21_110001=Tox21_400056; viability, 1 nM T3 present, 24 h

Compound | CC50 at 24 h [µM]
O=[N+]([O-])c1cc([N+](=O)[O-])c2ccccc2c1 [1,3-Dinitronaphthalene] | > 90
